Assay results from PubChem BioAssay AID2060498 (Molecular Pharmacology Branch, DTP, NCI, 2025).
Values belong to the molecule of their own block, whether it stands above or below them.

System: 171881-019-R-J1-PDC tumor spheroids, viability
Experiment: Anticancer human tumor 171881-019-R-J1-PDC patient-derived invasive breast carcinoma cell line growth inhibition [GQUAD]
Settings: spheroids with HUVEC and MSC; for IC50: curve of first compound; for viability, T/C: stronger effect = lower value
Outline: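 Tumor cells were grown as complex spheroids with HUVEC endothelial cells and mesenchymal stem cells as stroma. G-quadruplex stabilizers were combined with targeted agents over half-log dilutions from near the clinical Cmax, or from 10 microM.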

[1] = second compound 0.0316 µM, first compound 0.0316 µM
[2] = second compound 0.0316 µM, first compound 0.1 µM
[3] = second compound 0.0316 µM, first compound 0.316 µM
[4] = second compound 0.0316 µM, first compound 1 µM
[5] = second compound 0.0316 µM, first compound 3.16 µM
[6] = second compound 0.0316 µM, first compound 10 µM
[7] = second compound 0.1 µM, first compound 0.0316 µM
[8] = second compound 0.1 µM, first compound 0.1 µM
[9] = second compound 0.1 µM, first compound 0.316 µM
[10] = second compound 0.1 µM, first compound 1 µM
[11] = second compound 0.1 µM, first compound 3.16 µM
[12] = second compound 0.1 µM, first compound 10 µM
[13] = second compound 0.316 µM, first compound 0.0316 µM
[14] = second compound 0.316 µM, first compound 0.1 µM
[15] = second compound 0.316 µM, first compound 0.316 µM
[16] = second compound 0.316 µM, first compound 1 µM
[17] = second compound 0.316 µM, first compound 3.16 µM
[18] = second compound 0.316 µM, first compound 10 µM
[19] = second compound 1 µM, first compound 0.0316 µM
[20] = second compound 1 µM, first compound 0.1 µM
[21] = second compound 1 µM, first compound 0.316 µM
[22] = second compound 1 µM, first compound 1 µM
[23] = second compound 1 µM, first compound 3.16 µM
[24] = second compound 1 µM, first compound 10 µM
[25] = second compound 3.16 µM, first compound 0.0316 µM
[26] = second compound 3.16 µM, first compound 0.1 µM
[27] = second compound 3.16 µM, first compound 0.316 µM
[28] = second compound 3.16 µM, first compound 1 µM
[29] = second compound 3.16 µM, first compound 3.16 µM
[30] = second compound 3.16 µM, first compound 10 µM
[31] = second compound 10 µM, first compound 0.0316 µM
[32] = second compound 10 µM, first compound 0.1 µM
[33] = second compound 10 µM, first compound 0.316 µM
[34] = second compound 10 µM, first compound 1 µM
[35] = second compound 10 µM, first compound 3.16 µM
[36] = second compound 10 µM, first compound 10 µM
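Also: spheroids exposed to compounds for 7 days.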
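For viability, T/C in this document: 100% = DMSO vehicle control viability.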

IC50 (second compound 0.0316 µM): > 10 µM
IC50 (second compound 0.1 µM): > 10 µM
IC50 (second compound 0.316 µM): > 10 µM
IC50 (second compound 1 µM): > 10 µM
IC50 (second compound 3.16 µM): > 10 µM
IC50 (second compound 10 µM): > 10 µM
Compound: CCCS(=O)(=O)Nc1ccc(F)c(C(=O)c2c[nH]c3ncc(-c4ccc(Cl)cc4)cc23)c1F + Cc1cnc(CNC(=O)c2c(=O)c3ccc(N4CCCN(C)CC4)nc3n3c2sc2ccccc23)cn1
viability, T/C [1]: 104%
viability, T/C [2]: 95.3%
viability, T/C [3]: 108%
viability, T/C [4]: 112%
viability, T/C [5]: 117%
viability, T/C [6]: 69.3%
viability, T/C [7]: 83%
viability, T/C [8]: 95.2%
viability, T/C [9]: 90.4%
viability, T/C [10]: 102%
viability, T/C [11]: 92.2%
viability, T/C [12]: 54.9%
viability, T/C [13]: 78%
viability, T/C [14]: 78.8%
viability, T/C [15]: 81.9%
viability, T/C [16]: 78.7%
viability, T/C [17]: 91.9%
viability, T/C [18]: 52.1%
viability, T/C [19]: 72.1%
viability, T/C [20]: 66.5%
viability, T/C [21]: 79.5%
viability, T/C [22]: 69.5%
viability, T/C [23]: 82.3%
viability, T/C [24]: 59.6%
viability, T/C [25]: 63.9%
viability, T/C [26]: 61.8%
viability, T/C [27]: 68.5%
viability, T/C [28]: 66.6%
viability, T/C [29]: 67.5%
viability, T/C [30]: 53%
viability, T/C [31]: 59.9%
viability, T/C [32]: 62.1%
viability, T/C [33]: 59.4%
viability, T/C [34]: 68%
viability, T/C [35]: 68.4%
viability, T/C [36]: 51.8%

IC50 (second compound 0.0316 µM): 0.0433 µM
IC50 (second compound 0.1 µM): 0.0475 µM
IC50 (second compound 0.316 µM): 0.0434 µM
IC50 (second compound 1 µM): 0.046 µM
IC50 (second compound 3.16 µM): 0.0372 µM
IC50 (second compound 10 µM): 0.0376 µM
Compound: Cc1[nH]c2ccccc2c1CCNCc1ccc(/C=C/C(=O)NO)cc1 + Cc1cnc(CNC(=O)c2c(=O)c3ccc(N4CCCN(C)CC4)nc3n3c2sc2ccccc23)cn1
viability, T/C (second compound 0.0316 µM, first compound 0.000999 µM): 108%
viability, T/C (second compound 0.0316 µM, first compound 0.00316 µM): 89.9%
viability, T/C (second compound 0.0316 µM, first compound 0.00999 µM): 81.7%
viability, T/C [1]: 61.3%
viability, T/C (second compound 0.0316 µM, first compound 0.0999 µM): 26.1%
viability, T/C [3]: 0.61%
viability, T/C (second compound 0.1 µM, first compound 0.000999 µM): 89.1%
viability, T/C (second compound 0.1 µM, first compound 0.00316 µM): 75.4%
viability, T/C (second compound 0.1 µM, first compound 0.00999 µM): 69.1%
viability, T/C [7]: 66.9%
viability, T/C (second compound 0.1 µM, first compound 0.0999 µM): 24.9%
viability, T/C [9]: 0.91%
viability, T/C (second compound 0.316 µM, first compound 0.000999 µM): 75.3%
viability, T/C (second compound 0.316 µM, first compound 0.00316 µM): 71.1%
viability, T/C (second compound 0.316 µM, first compound 0.00999 µM): 71.2%
viability, T/C [13]: 58.9%
viability, T/C (second compound 0.316 µM, first compound 0.0999 µM): 26.6%
viability, T/C [15]: 0.83%
viability, T/C (second compound 1 µM, first compound 0.000999 µM): 71.9%
viability, T/C (second compound 1 µM, first compound 0.00316 µM): 61.2%
viability, T/C (second compound 1 µM, first compound 0.00999 µM): 64%
viability, T/C [19]: 62.9%
viability, T/C (second compound 1 µM, first compound 0.0999 µM): 23.4%
viability, T/C [21]: 0.22%
viability, T/C (second compound 3.16 µM, first compound 0.000999 µM): 60.9%
viability, T/C (second compound 3.16 µM, first compound 0.00316 µM): 57.4%
viability, T/C (second compound 3.16 µM, first compound 0.00999 µM): 67.8%
viability, T/C [25]: 55.9%
viability, T/C (second compound 3.16 µM, first compound 0.0999 µM): 12.2%
viability, T/C [27]: 0.93%
viability, T/C (second compound 10 µM, first compound 0.000999 µM): 57.4%
viability, T/C (second compound 10 µM, first compound 0.00316 µM): 61.3%
viability, T/C (second compound 10 µM, first compound 0.00999 µM): 57.1%
viability, T/C [31]: 58.1%
viability, T/C (second compound 10 µM, first compound 0.0999 µM): 3.88%
viability, T/C [33]: 0.37%

IC50 (second compound 0.0316 µM): > 10 µM
IC50 (second compound 0.1 µM): > 10 µM
IC50 (second compound 0.316 µM): > 10 µM
IC50 (second compound 1 µM): > 10 µM
IC50 (second compound 3.16 µM): > 10 µM
IC50 (second compound 10 µM): > 10 µM
Compound: O=c1[nH]cc(F)c(=O)[nH]1 + Cc1cnc(CNC(=O)c2c(=O)c3ccc(N4CCCN(C)CC4)nc3n3c2sc2ccccc23)cn1
viability, T/C [1]: 80.2%
viability, T/C [2]: 69.5%
viability, T/C [3]: 57.5%
viability, T/C [4]: 57.4%
viability, T/C [5]: 54.5%
viability, T/C [6]: 57%
viability, T/C [7]: 77.7%
viability, T/C [8]: 67.7%
viability, T/C [9]: 62.2%
viability, T/C [10]: 58.3%
viability, T/C [11]: 59.4%
viability, T/C [12]: 60.4%
viability, T/C [13]: 68.9%
viability, T/C [14]: 71.2%
viability, T/C [15]: 65.6%
viability, T/C [16]: 58.7%
viability, T/C [17]: 65.2%
viability, T/C [18]: 59.4%
viability, T/C [19]: 67.7%
viability, T/C [20]: 60.6%
viability, T/C [21]: 65.5%
viability, T/C [22]: 60.2%
viability, T/C [23]: 66.2%
viability, T/C [24]: 63.1%
viability, T/C [25]: 65%
viability, T/C [26]: 59.6%
viability, T/C [27]: 58.9%
viability, T/C [28]: 55.5%
viability, T/C [29]: 65%
viability, T/C [30]: 62.3%
viability, T/C [31]: 59.1%
viability, T/C [32]: 59.6%
viability, T/C [33]: 55.1%
viability, T/C [34]: 57.7%
viability, T/C [35]: 61.5%
viability, T/C [36]: 54%
